Results as given in ChEMBL document CHEMBL3991601, “The target landscape of clinical kinase drugs” (Science, 2017).
Calls of active or inactive are those of the source. For most assays here, no stated cut-off is given here; in the data, actives have a measured Kd and inactives only a lower limit.

Legend:
[1] = molecular target: cAMP-dependent protein kinase catalytic subunit alpha (Homo sapiens, UniProt P17612)
[2] = molecular target: T1, Delta(24)-sterol reductase (Homo sapiens, UniProt Q15392)
T1 sequence (Q15392 whole entry): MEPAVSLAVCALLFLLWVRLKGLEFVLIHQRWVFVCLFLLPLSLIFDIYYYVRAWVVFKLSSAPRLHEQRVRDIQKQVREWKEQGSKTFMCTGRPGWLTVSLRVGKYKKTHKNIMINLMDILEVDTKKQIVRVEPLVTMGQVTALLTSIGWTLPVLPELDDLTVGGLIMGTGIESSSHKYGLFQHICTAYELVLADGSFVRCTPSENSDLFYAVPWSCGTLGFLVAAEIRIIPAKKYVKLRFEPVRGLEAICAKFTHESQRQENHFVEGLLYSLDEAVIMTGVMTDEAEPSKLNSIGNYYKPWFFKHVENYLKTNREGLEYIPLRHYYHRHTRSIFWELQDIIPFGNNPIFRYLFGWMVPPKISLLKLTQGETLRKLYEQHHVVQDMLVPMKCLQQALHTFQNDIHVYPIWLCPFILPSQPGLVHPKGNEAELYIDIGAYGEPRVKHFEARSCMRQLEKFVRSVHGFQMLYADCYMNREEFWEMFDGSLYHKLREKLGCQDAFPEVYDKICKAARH

[3] = molecular target: MAP/microtubule affinity-regulating kinase 3 (Homo sapiens, UniProt P27448)
[4] = molecular target: Serine/threonine-protein kinase SIK3 (Homo sapiens, UniProt Q9Y2K2)
[5] = molecular target: T2, Cyclin-G-associated kinase (Homo sapiens, UniProt O14976)
T2 sequence (O14976 whole entry): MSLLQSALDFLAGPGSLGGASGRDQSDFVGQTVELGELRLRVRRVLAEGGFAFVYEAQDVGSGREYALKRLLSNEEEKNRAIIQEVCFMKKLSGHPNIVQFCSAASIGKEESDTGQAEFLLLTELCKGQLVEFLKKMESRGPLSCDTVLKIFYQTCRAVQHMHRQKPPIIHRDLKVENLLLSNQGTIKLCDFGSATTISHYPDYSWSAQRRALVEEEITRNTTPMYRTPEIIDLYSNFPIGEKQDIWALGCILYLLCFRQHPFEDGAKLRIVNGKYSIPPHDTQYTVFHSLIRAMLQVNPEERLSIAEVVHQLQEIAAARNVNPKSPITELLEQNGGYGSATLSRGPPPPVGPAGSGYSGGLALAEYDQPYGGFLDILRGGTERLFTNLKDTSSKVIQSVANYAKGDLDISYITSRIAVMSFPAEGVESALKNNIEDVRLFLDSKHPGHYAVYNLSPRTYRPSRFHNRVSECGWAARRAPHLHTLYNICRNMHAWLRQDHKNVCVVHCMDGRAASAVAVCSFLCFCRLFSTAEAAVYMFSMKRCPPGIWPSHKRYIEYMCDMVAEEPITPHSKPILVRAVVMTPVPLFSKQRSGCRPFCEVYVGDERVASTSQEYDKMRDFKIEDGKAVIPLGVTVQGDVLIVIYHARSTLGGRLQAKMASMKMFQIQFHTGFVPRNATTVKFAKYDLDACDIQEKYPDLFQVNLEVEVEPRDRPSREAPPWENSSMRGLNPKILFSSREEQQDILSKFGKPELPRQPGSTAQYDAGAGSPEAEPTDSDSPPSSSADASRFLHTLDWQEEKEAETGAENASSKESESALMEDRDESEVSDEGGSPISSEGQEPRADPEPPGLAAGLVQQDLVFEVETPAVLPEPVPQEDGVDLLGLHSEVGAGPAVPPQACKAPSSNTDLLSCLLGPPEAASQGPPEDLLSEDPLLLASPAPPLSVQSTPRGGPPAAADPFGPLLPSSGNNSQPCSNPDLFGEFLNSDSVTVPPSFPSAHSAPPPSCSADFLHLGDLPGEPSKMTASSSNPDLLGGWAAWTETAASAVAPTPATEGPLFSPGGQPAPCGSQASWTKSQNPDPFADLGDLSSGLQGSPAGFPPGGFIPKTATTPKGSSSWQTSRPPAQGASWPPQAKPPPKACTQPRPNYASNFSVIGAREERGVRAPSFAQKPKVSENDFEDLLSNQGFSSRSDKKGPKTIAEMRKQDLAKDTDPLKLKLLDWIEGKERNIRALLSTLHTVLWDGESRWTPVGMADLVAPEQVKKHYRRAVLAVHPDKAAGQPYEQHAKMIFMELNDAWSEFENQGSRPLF

[6] = molecular target: Tyrosine-protein kinase Lyn (Homo sapiens, UniProt P07948)
[7] = molecular target: Cyclin-dependent kinase 13 (Homo sapiens, UniProt Q14004)
[8] = molecular target: Cyclin-dependent kinase 12 (Homo sapiens, UniProt Q9NYV4)
[9] = molecular target: T3, Phosphatidylinositol 5-phosphate 4-kinase type-2 alpha (Homo sapiens, UniProt P48426)
T3 sequence (P48426 whole entry): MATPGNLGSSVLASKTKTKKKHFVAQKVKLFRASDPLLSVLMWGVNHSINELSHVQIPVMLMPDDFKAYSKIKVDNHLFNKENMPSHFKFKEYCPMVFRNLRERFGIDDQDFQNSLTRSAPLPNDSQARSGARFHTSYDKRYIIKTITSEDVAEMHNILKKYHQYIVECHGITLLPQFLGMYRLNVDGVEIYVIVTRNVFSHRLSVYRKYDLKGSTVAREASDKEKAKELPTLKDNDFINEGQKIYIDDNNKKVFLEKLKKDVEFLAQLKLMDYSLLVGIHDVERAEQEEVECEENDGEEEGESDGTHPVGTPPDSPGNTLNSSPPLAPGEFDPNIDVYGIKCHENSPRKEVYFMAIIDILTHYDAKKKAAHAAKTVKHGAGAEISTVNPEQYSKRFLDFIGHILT

[10] = molecular target: DNA topoisomerase 2-alpha (Homo sapiens, UniProt P11388)

Chain of Cyclin-dependent kinase 13 (Q14004 whole entry): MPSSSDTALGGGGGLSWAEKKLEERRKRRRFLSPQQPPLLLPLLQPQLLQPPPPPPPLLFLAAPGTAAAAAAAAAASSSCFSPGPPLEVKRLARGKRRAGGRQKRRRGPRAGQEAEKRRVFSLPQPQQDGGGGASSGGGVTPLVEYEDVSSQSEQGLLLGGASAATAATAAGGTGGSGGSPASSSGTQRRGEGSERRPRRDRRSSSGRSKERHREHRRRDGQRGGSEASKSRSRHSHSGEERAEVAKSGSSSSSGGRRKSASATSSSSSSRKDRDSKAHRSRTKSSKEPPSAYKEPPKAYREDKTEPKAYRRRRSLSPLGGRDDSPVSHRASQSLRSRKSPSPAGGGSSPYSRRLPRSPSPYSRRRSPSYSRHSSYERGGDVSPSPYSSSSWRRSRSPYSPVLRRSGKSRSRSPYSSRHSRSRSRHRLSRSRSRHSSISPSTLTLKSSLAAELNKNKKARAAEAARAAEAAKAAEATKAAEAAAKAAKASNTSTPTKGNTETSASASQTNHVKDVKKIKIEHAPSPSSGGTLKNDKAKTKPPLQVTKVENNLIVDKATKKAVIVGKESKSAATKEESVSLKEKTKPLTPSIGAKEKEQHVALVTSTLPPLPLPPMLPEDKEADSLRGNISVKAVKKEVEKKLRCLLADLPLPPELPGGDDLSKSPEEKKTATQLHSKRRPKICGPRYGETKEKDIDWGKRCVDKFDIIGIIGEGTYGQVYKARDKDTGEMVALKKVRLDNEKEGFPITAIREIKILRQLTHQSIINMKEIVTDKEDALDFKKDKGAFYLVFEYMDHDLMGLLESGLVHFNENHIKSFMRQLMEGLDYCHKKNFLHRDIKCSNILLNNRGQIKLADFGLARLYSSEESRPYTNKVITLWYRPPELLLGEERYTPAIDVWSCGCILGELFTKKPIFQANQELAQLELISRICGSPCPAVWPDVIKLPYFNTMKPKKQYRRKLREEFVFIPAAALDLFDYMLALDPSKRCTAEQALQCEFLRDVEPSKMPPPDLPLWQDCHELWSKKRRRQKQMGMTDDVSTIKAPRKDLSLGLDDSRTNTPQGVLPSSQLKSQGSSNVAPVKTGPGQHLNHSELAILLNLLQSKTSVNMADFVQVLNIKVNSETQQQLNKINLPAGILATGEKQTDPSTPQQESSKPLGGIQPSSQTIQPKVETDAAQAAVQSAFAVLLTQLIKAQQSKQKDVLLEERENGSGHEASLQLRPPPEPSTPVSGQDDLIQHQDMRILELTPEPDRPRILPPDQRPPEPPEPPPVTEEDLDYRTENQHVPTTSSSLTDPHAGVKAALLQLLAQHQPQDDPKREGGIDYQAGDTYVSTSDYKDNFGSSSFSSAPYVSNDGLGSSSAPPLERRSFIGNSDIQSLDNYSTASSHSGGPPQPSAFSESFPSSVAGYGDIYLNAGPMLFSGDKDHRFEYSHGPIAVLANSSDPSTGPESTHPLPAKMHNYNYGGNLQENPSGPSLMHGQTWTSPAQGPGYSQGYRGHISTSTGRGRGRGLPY
Chain of MAP/microtubule affinity-regulating kinase 3 (P27448 whole entry): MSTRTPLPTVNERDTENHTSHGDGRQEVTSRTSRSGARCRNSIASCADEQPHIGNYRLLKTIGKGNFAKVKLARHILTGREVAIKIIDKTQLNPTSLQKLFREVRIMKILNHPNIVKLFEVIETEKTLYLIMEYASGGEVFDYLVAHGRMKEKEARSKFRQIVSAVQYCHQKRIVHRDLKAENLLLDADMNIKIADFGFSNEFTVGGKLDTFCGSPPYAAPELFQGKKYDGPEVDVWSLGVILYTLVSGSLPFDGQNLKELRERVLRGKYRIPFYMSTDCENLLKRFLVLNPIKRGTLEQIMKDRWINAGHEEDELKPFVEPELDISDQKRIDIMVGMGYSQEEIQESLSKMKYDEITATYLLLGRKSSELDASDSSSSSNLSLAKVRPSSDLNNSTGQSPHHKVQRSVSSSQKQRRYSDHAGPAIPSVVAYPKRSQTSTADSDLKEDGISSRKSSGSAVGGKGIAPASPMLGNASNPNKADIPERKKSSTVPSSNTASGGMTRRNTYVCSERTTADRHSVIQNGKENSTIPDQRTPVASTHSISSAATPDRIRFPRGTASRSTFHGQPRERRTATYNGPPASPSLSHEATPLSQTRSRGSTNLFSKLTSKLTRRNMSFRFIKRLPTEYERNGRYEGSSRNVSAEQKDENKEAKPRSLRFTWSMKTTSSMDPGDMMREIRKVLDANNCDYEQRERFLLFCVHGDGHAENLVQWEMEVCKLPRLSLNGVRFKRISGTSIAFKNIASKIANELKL
Chain of Tyrosine-protein kinase Lyn (P07948 whole entry): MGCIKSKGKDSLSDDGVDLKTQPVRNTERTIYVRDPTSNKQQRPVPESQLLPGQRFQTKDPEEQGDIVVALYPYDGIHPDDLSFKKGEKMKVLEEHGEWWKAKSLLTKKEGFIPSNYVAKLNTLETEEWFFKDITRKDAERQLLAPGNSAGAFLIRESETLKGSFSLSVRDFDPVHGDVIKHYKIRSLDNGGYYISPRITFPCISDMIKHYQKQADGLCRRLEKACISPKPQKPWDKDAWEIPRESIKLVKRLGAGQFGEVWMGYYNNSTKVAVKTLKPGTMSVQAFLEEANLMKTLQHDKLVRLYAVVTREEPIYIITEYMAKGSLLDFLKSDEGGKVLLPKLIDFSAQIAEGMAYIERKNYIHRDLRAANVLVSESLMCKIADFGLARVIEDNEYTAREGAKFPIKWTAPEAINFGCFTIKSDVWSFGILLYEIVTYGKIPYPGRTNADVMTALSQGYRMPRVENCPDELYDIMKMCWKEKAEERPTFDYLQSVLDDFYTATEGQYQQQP
Chain of Serine/threonine-protein kinase SIK3 (Q9Y2K2 whole entry): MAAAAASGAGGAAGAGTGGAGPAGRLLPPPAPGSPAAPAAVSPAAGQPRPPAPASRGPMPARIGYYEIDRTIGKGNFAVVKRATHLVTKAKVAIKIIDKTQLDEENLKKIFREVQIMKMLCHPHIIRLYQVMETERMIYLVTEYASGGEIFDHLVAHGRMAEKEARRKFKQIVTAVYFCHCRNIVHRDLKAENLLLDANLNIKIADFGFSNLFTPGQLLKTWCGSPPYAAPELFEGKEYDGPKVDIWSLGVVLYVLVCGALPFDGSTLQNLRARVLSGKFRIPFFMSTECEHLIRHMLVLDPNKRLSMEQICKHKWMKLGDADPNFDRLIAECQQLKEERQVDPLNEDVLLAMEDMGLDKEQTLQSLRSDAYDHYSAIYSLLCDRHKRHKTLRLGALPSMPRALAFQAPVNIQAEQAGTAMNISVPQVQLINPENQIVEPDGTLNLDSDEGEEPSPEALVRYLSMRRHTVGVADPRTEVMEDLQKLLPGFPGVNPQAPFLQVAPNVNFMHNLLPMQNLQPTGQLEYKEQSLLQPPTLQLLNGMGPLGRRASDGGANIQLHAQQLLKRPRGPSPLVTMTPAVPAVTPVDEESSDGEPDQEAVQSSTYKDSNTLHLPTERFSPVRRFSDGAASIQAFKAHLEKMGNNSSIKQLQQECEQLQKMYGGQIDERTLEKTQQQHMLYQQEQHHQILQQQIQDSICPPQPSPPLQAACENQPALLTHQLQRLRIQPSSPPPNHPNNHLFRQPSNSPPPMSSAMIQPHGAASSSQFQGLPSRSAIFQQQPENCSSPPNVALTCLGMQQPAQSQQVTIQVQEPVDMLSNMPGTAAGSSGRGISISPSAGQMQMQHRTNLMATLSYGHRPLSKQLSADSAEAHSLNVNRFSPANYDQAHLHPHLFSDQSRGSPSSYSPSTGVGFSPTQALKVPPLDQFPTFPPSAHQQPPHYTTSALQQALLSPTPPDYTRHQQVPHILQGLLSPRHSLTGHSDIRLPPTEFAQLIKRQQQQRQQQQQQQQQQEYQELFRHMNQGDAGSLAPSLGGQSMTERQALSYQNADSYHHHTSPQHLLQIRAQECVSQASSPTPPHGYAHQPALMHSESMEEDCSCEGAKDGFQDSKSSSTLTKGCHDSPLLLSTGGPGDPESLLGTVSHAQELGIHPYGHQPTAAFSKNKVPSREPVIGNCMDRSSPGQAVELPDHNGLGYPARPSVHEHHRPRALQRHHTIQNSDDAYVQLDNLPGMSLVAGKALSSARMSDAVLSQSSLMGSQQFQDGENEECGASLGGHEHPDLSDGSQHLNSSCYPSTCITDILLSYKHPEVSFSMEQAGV

| Structure (SMILES) | Kd [1] | Kd [2] | Kd [3] | Kd [4] | Kd [5] | Kd [6] | Kd [7] | Kd [8] | Kd [9] | Kd [10] |
| --- | --- | --- | --- | --- | --- | --- | --- | --- | --- | --- |
| C[C@H]1CNCCCN1S(=O)(=O)c1cccc2cncc(F)c12 | > 30 µM (inactive) | > 30 µM (inactive) | 58.2 µM (active) | > 30 µM (inactive) | > 30 µM (inactive) | > 30 µM (inactive) | > 30 µM (inactive) | > 30 µM (inactive) | – | – |
| COc1cc(Nc2ncc3c(n2)-c2ccc(Cl)cc2C(c2c(F)cccc2OC)=NC3)ccc1C(=O)O [ALISERTIB] | > 30 µM (inactive) | > 30 µM (inactive) | – | > 30 µM (inactive) | > 30 µM (inactive) | > 30 µM (inactive) | > 30 µM (inactive) | > 30 µM (inactive) | > 30 µM (inactive) | > 30 µM (inactive) |
| CNC(=O)c1ccccc1Sc1ccc2c(/C=C/c3ccccn3)n[nH]c2c1 [AXITINIB] | – | > 30 µM (inactive) | – | – | – | – | – | > 30 µM (inactive) | > 30 µM (inactive) | > 30 µM (inactive) |
| NC(=O)Nc1cc(-c2cccc(F)c2)sc1C(=O)N[C@H]1CCCNC1 [AZD-7762] | > 30 µM (inactive) | > 30 µM (inactive) | – | 0.043 µM (active) | 0.202 µM (active) | 0.48 µM (active) | > 30 µM (inactive) | > 30 µM (inactive) | > 30 µM (inactive) | > 30 µM (inactive) |
| CC(C)(C)c1nc(-c2cccc(NS(=O)(=O)c3c(F)cccc3F)c2F)c(-c2ccnc(N)n2)s1 [DABRAFENIB] | – | > 30 µM (inactive) | > 30 µM (inactive) | 2 µM (active) | > 30 µM (inactive) | – | > 30 µM (inactive) | > 30 µM (inactive) | > 30 µM (inactive) | > 30 µM (inactive) |
| Cn1cc(C2=C(c3cn(C4CCN(Cc5ccccn5)CC4)c4ccccc34)C(=O)NC2=O)c2ccccc21 [ENZASTAURIN] | – | > 30 µM (inactive) | – | – | – | – | – | > 30 µM (inactive) | > 30 µM (inactive) | – |
| C[C@@H](Oc1cc(-n2cnc3ccc(CN4CCN(C)CC4)cc32)sc1C(N)=O)c1ccccc1C(F)(F)F [GSK-461364] | – | > 30 µM (inactive) | – | – | – | – | – | > 30 µM (inactive) | > 30 µM (inactive) | > 30 µM (inactive) |
| O=C(Nc1cc(C(F)(F)F)cc(C(F)(F)F)c1)c1cc(Cl)ccc1O [IMD-0354] | > 30 µM (inactive) | > 30 µM (inactive) | > 30 µM (inactive) | > 30 µM (inactive) | > 30 µM (inactive) | > 30 µM (inactive) | > 30 µM (inactive) | > 30 µM (inactive) | > 30 µM (inactive) | > 30 µM (inactive) |
| CNC(=O)c1cccc2cc(Oc3ccnc4cc(OCC5(N)CC5)c(OC)cc34)ccc12 [LUCITANIB] | > 30 µM (inactive) | > 30 µM (inactive) | > 30 µM (inactive) | > 30 µM (inactive) | > 30 µM (inactive) | 2.76 µM (active) | > 30 µM (inactive) | > 30 µM (inactive) | > 30 µM (inactive) | > 30 µM (inactive) |
| Cc1[nH]c(/C=C2\C(=O)Nc3ccccc32)c(C)c1CCC(=O)O [ORANTINIB] | – | > 30 µM (inactive) | – | > 30 µM (inactive) | 2.09 µM (active) | – | > 30 µM (inactive) | > 30 µM (inactive) | > 30 µM (inactive) | > 30 µM (inactive) |
| NC(=O)c1c(OCc2c(F)cc(Br)cc2F)nsc1NC(=O)NCCCCN1CCCC1 [OSI-632] | – | > 30 µM (inactive) | – | – | > 30 µM (inactive) | – | – | > 30 µM (inactive) | > 30 µM (inactive) | > 30 µM (inactive) |
| CC(=O)NCC(=O)N1[C@@H]2CC[C@H]1c1ccc(Nc3ncc(C(F)(F)F)c(NC4CCC4)n3)cc12 [PF-03814735] | – | > 30 µM (inactive) | – | 9.65 µM (active) | 1.76 µM (active) | > 30 µM (inactive) | > 30 µM (inactive) | > 30 µM (inactive) | > 30 µM (inactive) | – |
| N#CC1(c2ccc(NC(=O)c3cccnc3NCc3ccncc3)cc2)CCCC1 [RIVOCERANIB] | > 30 µM (inactive) | > 30 µM (inactive) | > 30 µM (inactive) | > 30 µM (inactive) | > 30 µM (inactive) | > 30 µM (inactive) | > 30 µM (inactive) | > 30 µM (inactive) | > 30 µM (inactive) | > 30 µM (inactive) |
| O=C(NOCCO)c1cc(CN2OCCCC2=O)c(F)c(F)c1Nc1ccc(I)cc1F [RO-4987655] | – | > 30 µM (inactive) | – | – | – | – | – | > 30 µM (inactive) | > 30 µM (inactive) | > 30 µM (inactive) |
| N#CC[C@H](C1CCCC1)n1cc(-c2ncnc3[nH]ccc23)cn1 [RUXOLITINIB] | – | > 30 µM (inactive) | – | – | – | – | – | > 30 µM (inactive) | > 30 µM (inactive) | – |
| O=c1[nH]ccc2cc(OC3CCNCC3)ccc12 [SAR-407899 FREE BASE] | 0.013 µM | > 30 µM (inactive) | > 30 µM (inactive) | > 30 µM (inactive) | > 30 µM (inactive) | > 30 µM (inactive) | > 30 µM (inactive) | > 30 µM (inactive) | > 30 µM (inactive) | > 30 µM (inactive) |
| O=C(Cc1ccc(-c2ccc(OCCN3CCOCC3)cc2)cn1)NCc1ccccc1 [TIRBANIBULIN] | > 30 µM (inactive) | > 30 µM (inactive) | > 30 µM (inactive) | > 30 µM (inactive) | > 30 µM (inactive) | > 30 µM (inactive) | > 30 µM (inactive) | > 30 µM (inactive) | > 30 µM (inactive) | > 30 µM (inactive) |
| Cn1ncc(Cl)c1-c1cc(C(=O)N[C@H](CN)Cc2ccc(F)c(F)c2)oc1Cl [UPROSERTIB] | 0.01 µM (active) | > 30 µM (inactive) | – | > 30 µM (inactive) | > 30 µM (inactive) | > 30 µM (inactive) | > 30 µM (inactive) | > 30 µM (inactive) | > 30 µM (inactive) | > 30 µM (inactive) |
| C[C@@H](N)c1ccc(C(=O)Nc2ccnc3[nH]ccc23)cc1 [Y-39983] | 23.2 µM (active) | > 30 µM (inactive) | 38.5 µM (active) | 0.071 µM (active) | > 30 µM (inactive) | > 30 µM (inactive) | > 30 µM (inactive) | > 30 µM (inactive) | > 30 µM (inactive) | > 30 µM (inactive) |
